Experimental data published in ChEMBL document CHEMBL5356933, “Dual functional therapeutics: mitigating bacterial infection and associated inflammation” (RSC Med Chem, 2023).
Converted amounts (≈) assume the structure as drawn. Blank lines part the entries; values can stand above or below the compound they belong to. Residues, ends and D or L forms follow the SMILES beside them.

Key:
Escherichia coli [1] = experiment: Antibacterial activity against Escherichia coli assessed as reduction in bacterial growth by broth micro-dilution method; type: functional
Streptococcus pneumoniae = experiment: Antibacterial activity against Streptococcus pneumoniae ATCC 49619 assessed as reduction in bacterial growth; type: functional
Staphylococcus aureus [2] = experiment: Antibacterial activity against methicillin-resistant Staphylococcus aureus ATCC 33591 assessed as reduction in bacterial growth incubated for 24 hrs by agar plate method; type: functional
Escherichia coli [3] = experiment: Antimicrobial activity against Escherichia coli ATCC 25922 assessed as reduction in microbial growth incubated for 24 hrs by CLSI based broth microdilution method; type: functional
Acinetobacter baumannii = experiment: Antibacterial activity against Acinetobacter baumannii ATCC 19606 assessed as bacterial growth inhibition at 32 ug/ml measured after 16 hrs by broth microdilution method; type: functional; settings: dose 32 µg/ml
J774.A1 [4] = experiment: Antiinflammatory activity against mouse J774.A1 cells assessed as inhibition of LPS-stimulated TNFalpha release measured at 10 uM after 30 mins by ELISA relative to control; type: functional; design: scale not given: the % may be the effect or the level left; settings: 0.5 h
J774.A1 [5] = experiment: Antiinflammatory activity in mouse J774.A1 cells assessed as decrease in LPS-induced IL-6 secretion at 20 uM preincubated for 30 mins followed by LPS stimulation and measured after 24 hrs by ELISA; type: functional; design: scale not given: the % may be the effect or the level left; settings: time 1470 min, 24.5 h
[6] = Hemolytic activity in human RBC assessed as hemolysis up to 100 microg/ml measured after 1 hr; type: toxicity, cell-based, Erythrocyte; settings: red blood cells (erythrocytes), dose < 100 µg/ml
Escherichia coli [7] = experiment: Antibacterial activity against Escherichia coli ATCC 25922 assessed as inhibition of bacterial growth incubated for 16 to 18 hrs by broth microdilution method; type: functional; settings: time 16-18 hrs
Staphylococcus aureus [8] = experiment: Antibacterial activity against Staphylococcus aureus ATCC 33591 assessed as reduction in bacterial growth; type: functional
[9] = tested on: Staphylococcus epidermidis; experiment: Antibacterial activity against Staphylococcus epidermidis assessed as reduction in microbial growth incubated for 24 hrs by broth micro-dilution method; type: functional
Escherichia coli [10] = experiment: Antibacterial activity against Escherichia coli ATCC 25922 assessed as reduction in bacterial growth by broth microdilution method; type: functional
Pseudomonas aeruginosa = experiment: Antibacterial activity against multi-drug resistant Pseudomonas aeruginosa assessed as reduction in bacterial growth by broth microdilution method; type: functional
RAW264.7 [11] = experiment: Anti-inflammatory activity against mouse RAW264.7 cells assessed as inhibition of LPS-induced NO production at 20 ug/ml relative to control; type: functional; design: scale not given: the % may be the effect or the level left; settings: dose 20 µg/ml
RAW264.7 [12] = experiment: Antiinflammatory activity in LPS-induced mouse RAW264.7 cells assessed as reduction in TNF alpha level at 20 ug/ml measured after 72 hrs by ELISA assay relative to control; type: functional; design: scale not given: the % may be the effect or the level left; settings: dose 20 µg/ml
RAW264.7 [13] = experiment: Anti-inflammatory activity in mouse RAW264.7 cells assessed as reduction in LPS-induced IL-6 mRNA expression at 20 ug/ml incubated for 24 hrs by qPCR analysis relative to control; type: functional; design: scale not given: the % may be the effect or the level left; settings: dose 20 µg/ml
RAW264.7 [14] = experiment: Immunosuppressive activity in LPS-treated mouse RAW264.7 cells assessed as inhibition of MCP-1 level at 20 ug/ml incubated for 24 hrs by ELISA analysis relative to control; type: functional; design: scale not given: the % may be the effect or the level left; settings: dose 20 µg/ml
RAW264.7 [15] = experiment: Anti-inflammatory activity against mouse RAW264.7 cells assessed as inhibition of LPS-induced NO production at 10 uM incubated for 24 hrs by Griess reagent based analysis relative to control; type: functional; design: scale not given: the % may be the effect or the level left
RAW264.7 [16] = experiment: Antiinflammatory activity against LPS-stimulated mouse RAW264.7 cells assessed as inhibition of TNFalpha production at 10 uM preincubated for 27 hrs followed by LPS stimulation and measured after 12 hrs by ELISA analysis relative to control; type: functional; design: scale not given: the % may be the effect or the level left; settings: time 39 hrs
Enterococcus faecium = experiment: Antibacterial activity against Enterococcus faecium clinical isolate assessed as reduction in cell growth incubated for 48 hrs by broth micro-dilution method; type: functional
Staphylococcus aureus [17] = experiment: Antibacterial activity against Staphylococcus aureus clinical isolate assessed as reduction in cell growth incubated for 48 hrs by broth micro-dilution method; type: functional
Klebsiella pneumoniae = experiment: Antibacterial activity against Klebsiella pneumoniae clinical isolate assessed as reduction in cell growth incubated for 48 hrs by broth micro-dilution method; type: functional
RAW264.7 [18] = experiment: Anti-inflammatory activity against mouse RAW264.7 cells assessed as reduction in LPS-induced TNFalpha production relative to control; type: functional; design: scale not given: the % may be the effect or the level left
RAW264.7 [19] = experiment: Anti-inflammatory activity against mouse RAW264.7 cells assessed as reduction in LPS-induced IL-6 mRNA production relative to control; type: functional; design: scale not given: the % may be the effect or the level left
[20] = Acute toxicity in Kunming mouse assessed as survival rate at 40 ug/kg, ip administered once daily for 14 days relative to control; type: organism-based; settings: in vivo, 0.04 mg/kg, time 14 day, read-out: Activity
[21] = Acute toxicity in Kunming mouse assessed as survival rate at 80 ug/kg, ip administered once daily for 14 days relative to control; type: organism-based; settings: in vivo, 0.08 mg/kg, time 14 day, read-out: Activity
[22] = Acute toxicity in Kunming mouse assessed as survival rate at 160 ug/kg, ip administered once daily for 14 days relative to control; type: organism-based; settings: in vivo, 0.16 mg/kg, time 14 day, read-out: Activity
RAW264.7 [23] = experiment: Antiinflammatory activity against LPS-induced mouse RAW264.7 cells assessed as reduction in IL-6 mRNA expression incubated for 24 hrs by RT-PCR analysis relative to control; type: functional; design: scale not given: the % may be the effect or the level left
RAW264.7 [24] = experiment: Antiinflammatory activity against mouse RAW264.7 cells assessed as reduction in TNF alpha production incubated for 24 hrs by ELISA method relative to control; type: functional; design: scale not given: the % may be the effect or the level left

Compound: CCCCCCN(Cc1ccc(-c2ccc(CN(CCCCCC)C(=O)[C@@H](N)CCCCN)cc2)cc1)C(=O)[C@@H](N)CCCCN
MIC (Staphylococcus aureus [2]): 3.1 µg/mL (≈ 4.87 µM)

Compound: CC[C@H](C)[C@H](NC(=O)[C@H](Cc1cnc[nH]1)NC(=O)[C@H](CO)NC(=O)[C@@H](NC(=O)[C@@H](NC(=O)[C@@H](NC(=O)[C@@H](NC(=O)[C@H](CCCNC(=N)N)NC(=O)[C@H](CC(C)C)NC(=O)[C@H](CCCCN)NC(=O)[C@H](CCC(=O)O)NC(=O)[C@H](CCCCN)NC(=O)[C@H](CC(C)C)NC(=O)[C@H](CCCCN)NC(=O)[C@H](CS)NC(=O)[C@H](CC(C)C)NC(=O)[C@H](Cc1ccccc1)NC(=O)[C@H](CC(N)=O)NC(=O)[C@H](CS)NC(=O)[C@@H](N)CCCCN)[C@@H](C)O)C(C)C)[C@@H](C)CC)[C@@H](C)O)C(=O)N[C@@H](CC(=O)O)C(=O)N[C@@H](CCCCN)C(=O)N[C@H](C(=O)N[C@@H](CC(C)C)C(=O)N[C@@H](CCCNC(=N)N)C(=O)N1CCC[C@H]1C(=O)N[C@@H](CCC(N)=O)C(=O)NCC(N)=O)C(C)C (H-KCNFLCKLKEKLRTVITSHIDKVLRPQG-NH2)
MIC (Escherichia coli [10]): 4.69 µg/mL (≈ 1.44 µM)
MIC (Pseudomonas aeruginosa): 37.5 µg/mL (≈ 11.5 µM)
Activity (RAW264.7 [11]): 70%
Activity (RAW264.7 [12]): 60%
Activity (RAW264.7 [13]): 86%
Activity (RAW264.7 [14]): 68%

Compound: CC(C)C[C@H](NC(=O)[C@H](Cc1c[nH]c2ccccc12)NC(=O)[C@H](CCCCN)NC(=O)[C@H](CCCCN)NC(=O)[C@H](Cc1c[nH]c2ccccc12)NC(=O)[C@H](CCCCN)NC(=O)[C@H](CCCCN)NC(=O)[C@H](Cc1c[nH]c2ccccc12)NC(=O)[C@H](CC(C)C)NC(=O)[C@@H](N)CCCCN)C(=O)N[C@@H](CCCCN)C(N)=O (H-KLWKKWKKWLK-NH2)
Activity (RAW264.7 [15]): 50%

Compound: CC[C@H](C)[C@H](NC(=O)[C@H](CCCNC(=N)N)NC(=O)[C@H](CCCCN)NC(=O)[C@@H](NC(=O)[C@@H](NC(=O)[C@H](CCCNC(=N)N)NC(=O)[C@@H](N)CCCCN)[C@@H](C)CC)C(C)C)C(=O)N[C@@H](CCCCN)C(=O)N[C@@H](CCCCN)C(=O)N[C@@H](Cc1c[nH]c2ccccc12)C(=O)N[C@@H](CC(C)C)C(=O)N[C@@H](CCCNC(=N)N)C(N)=O (H-KRIVKRIKKWLR-NH2)
Activity (RAW264.7 [16]): 74.2%

Compound: CC(C)C[C@H](NC(=O)CNC(=O)[C@H](Cc1ccccc1)NC(=O)[C@H](CCCNC(=N)N)NC(=O)[C@H](CCCNC(=N)N)NC(=O)CNC(=O)[C@H](Cc1cnc[nH]1)NC(=O)[C@H](CCCNC(=N)N)NC(=O)CNC(=O)[C@@H](NC(=O)[C@H](C)NC(=O)[C@@H](N)CO)C(C)C)C(=O)N[C@@H](CCCNC(=N)N)C(=O)N[C@@H](CCCCN)C(=O)N[C@@H](Cc1cnc[nH]1)C(=O)N[C@@H](CCCNC(=N)N)C(=O)N[C@@H](CCCCN)C(=O)N[C@@H](Cc1cnc[nH]1)C(=O)O (H-SAVGRHGRRFGLRKHRKH-OH)
Activity (RAW264.7 [18]): >50%
Activity (RAW264.7 [19]): >50%
survival at 336 h [20]: 10%
survival at 336 h [21]: 70%
survival at 336 h [22]: 75%
Activity (RAW264.7 [23]): 46%
Activity (RAW264.7 [24]): 75%

More lines, main results first:

MIC (Escherichia coli [1]): 3.13 µg/mL (≈ 5.23 µM)
Compound: NCCCOc1cc(OCCCN)cc(-c2cc(-c3ccccc3)cc(-c3cc(OCCCN)cc(OCCCN)c3)c2)c1

MIC (Streptococcus pneumoniae): 4.1 µM (≈ 1.75 µg/mL)
Compound: CCCCCCCCCCN(Cc1cccc2ccccc12)C(=O)[C@@H](N)CCCCN

MIC (Escherichia coli [3]): 1 µM
Compound: CCCCCCCCCCCCCCCC(=O)N(CC(N)=O)C[C@H](CCCCN)NC(=O)N1C[C@H](Cc2ccccc2)NC(=O)CN(C(=O)CCCN)C[C@H](Cc2ccccc2)NC(=O)CN(C(=O)CCCN)C[C@H](Cc2ccccc2)NC(=O)CN(C(=O)CCCN)C[C@H](Cc2ccccc2)NC(=O)CCC1=O

MIC (Acinetobacter baumannii): 2 µM (≈ 3.73 µg/mL)
Compound: CC[C@H](C)[C@@H](NC(=O)[C@@H](CCCNC(=N)N)NC(=O)[C@@H](CCCNC(=N)N)NC(=O)[C@@H](CC(C)C)NC(=O)[C@@H](Cc1c[nH]c2ccccc12)NC(=O)[C@@H](C)NC(=O)[C@@H](CCCCN)NC(=O)[C@H](NC(=O)[C@@H](CCCNC(=N)N)NC(=O)[C@@H](CCCNC(=N)N)NC(=O)[C@@H](CC(C)C)NC(=O)[C@H](N)Cc1c[nH]c2ccccc12)[C@@H](C)CC)C(=O)N[C@H](CCCCN)C(=O)N[C@H](C)C(N)=O
Activity (J774.A1 [4]): 64.7%
Activity (J774.A1 [5]): 96.4%

MIC (Escherichia coli [7]): 0.9 µg/mL
Compound: CCOC(=O)[C@H](Cc1ccccc1)NC(=O)C[N+](C)(C)CCCCCCCCCCCC[N+](C)(C)CC(=O)N[C@H](Cc1ccccc1)C(=O)OCC
HC50 at 1 h [6]: 758 µg/mL

MIC (Staphylococcus aureus [8]): 2.4 µM (≈ 3.86 µg/mL)
MIC [9]: 0.6 µM
Compound: CCCCCCCCCCCCCCCC(=O)N(CCNC(=O)CN1C[C@H](Cc2ccccc2)NC(=O)[C@H](CCCCN)N(C(=O)CCc2ccccc2)CCNC(=O)[C@H](CCCCN)N(C(=O)CCc2ccccc2)CCNC(=O)[C@H](CCCCN)N(C(=O)CCc2ccccc2)CCNC(=O)CCC1=O)[C@@H](CCCCN)C(N)=O

MIC (Enterococcus faecium): 5 µM (≈ 11.3 µg/mL)
MIC (Staphylococcus aureus [17]): 5 µM (≈ 11.3 µg/mL)
MIC (Klebsiella pneumoniae): 5 µM (≈ 11.3 µg/mL)
Compound: CC[C@H](C)[C@H](NC(=O)[C@H](Cc1c[nH]c2ccccc12)NC(=O)[C@H](CCCNC(=N)N)NC(=O)[C@H](CCC(N)=O)NC(=O)[C@@H](NC(=O)[C@H](Cc1c[nH]c2ccccc12)NC(=O)[C@H](CCCNC(=N)N)NC(=O)[C@@H](N)CCCNC(=N)N)C(C)C)C(=O)N[C@@H](CCCNC(=N)N)C(=O)N[C@@H](CCCNC(=N)N)C(=O)N[C@@H](Cc1c[nH]c2ccccc12)C(=O)N[C@@H](CCCNC(=N)N)C(=O)N[C@@H](CCCCN)C(=O)N[C@@H](Cc1c[nH]c2ccccc12)C(=O)N[C@H](C(=O)O)C(C)C (H-RRWVQRWIRRWRKWV-OH)
